Results on 7 molecules are retold here after patent US4880825A, “Mitomycin derivatives” (Kyowa Hakko Kogyo Kabushiki Kaisha, priority 1987, dated 1989).

In brackets after ≈: the same amount, converted by molar mass. Some results are limits rather than exact numbers.

The test system of series [1] is Streptococcus faecalis ATCC 10541. The series can be described thus: Anti-bacterial activity, minimum inhibitory concentration by agar dilution method at pH 7.0 (SF). The format is cell-based. As to conditions: Enterococcus faecalis, ATCC10541. From the text: (§1) In this table, the microorganisms are abbreviated as follows:
SF: Streptococcus faecalis ATCC 10541
(In general: In agar dilution the substance is mixed into plates at graded concentrations.)

Series [2] has as its system Staphylococcus aureus ATCC 6538P. The series can be described thus: Anti-bacterial activity, minimum inhibitory concentration by agar dilution method at pH 7.0 (SA). The format is cell-based. As to conditions: ATCC6538P.
Source text: as §1
SA: Staphylococcus aureus ATCC 6538P

For series [3], the system named is Proteus vulgaris ATCC 6897. The series can be described thus: Anti-bacterial activity, minimum inhibitory concentration by agar dilution method at pH 7.0 (PV). The format is cell-based. As to conditions: ATCC6897.
Source text: as §1
PV: Proteus vulgaris ATCC 6897

In series [4] the test system is Klebsiella pneumoniae ATCC 10031. The series is described as follows: Anti-bacterial activity, minimum inhibitory concentration by agar dilution method at pH 7.0 (KP). The class given is cell-based. As to conditions: ATCC10031.
Source text: as §1
KP: Klebsiella pneumoniae ATCC 10031.

In series [5] the test system is Leukemia P-388. The series can be described thus: Effects upon Leukemia P-388 (survival of CDF1 mice implanted with P-388 cells). The class given is in vivo, mouse (CDF1). As to conditions: abdominally once; for ILS(%) (Increased Life Span): 24 h after implantation, CDF1 mice, 33 days, ratio to untreated control survival; for ILS* (ratio of ILS % of test compound to ILS % of mitomycin C): relative to mitomycin C as control under the same conditions. The method, then:
P-388 ascites tumour was abdominally implanted into a mouse (DBA/2). 7 days after this, ascitic fluid was collected from the tumour-carrying mouse. The number of P-388 cells was counted to prepare a cell suspension containing 5×10^6 cells/ml using a sterilized physiological saline solution. 0.2 ml of the cell suspension containing 1×10^6cells was abdominally implanted into each mouse of CDF1 strain (body weight 20-25 g). […] The effect of the test compound was evaluated with reference to the ILS % (Increased Life Span) (the ratio of the average survival days of the test animals to the average survival days of the control group of untreated animals). The following Table 5 indicates ILS* (the ratio of ILS % obtained using each of the test compounds to the corresponding ILS % obtained using mitomycin C as control under the same conditions).

Series [6] in a line: Acute toxicity (LD50, Behrens-Koerber method). The note with it: mouse, in vivo, ip; ddy mice, abdominally administered once, 14 days observation. How it is done:
From the death ratio of each test group of animals, acute toxicity (LD50) was calculated by the "Behrens-Koerber" method.

By MIC is commonly meant the lowest concentration found to suppress growth. A high value points to weaker potency. What is called LD50 is the dose expected to kill half of the subjects tested. Higher therefore signals lower toxicity. With `CO[C@@]12[C@H](COC(N)=O)C3=C(C(=O)C(C)C4(OCCO4)C3=O)N1C[C@@H]1N[C@@H]12` (stereo partly shown) [Compound 1, 7-demethoxy-6,7-dihydro-7-ethylenedioxymitomycin A], the MIC in series [1] was found to be 0.078 µg/mL (≈ 0.206 µM); in series [2] it was 0.039 µg/mL (≈ 0.103 µM); in series [3], 0.0098 µg/mL (≈ 0.0258 µM); in series [4], 0.0049 µg/mL (≈ 0.0129 µM). In addition, the “ILS(%) (Increased Life Span)” value in series [5] (dose 0.39 mg/kg) worked out at 169%. The “ILS* (ratio of ILS % of test compound to ILS % of mitomycin C)” value in series [5] (dose 0.39 mg/kg) was found to be 1.00. Also, the LD50 at 336 h in series [6] was found to be 0.7 mg/kg.

Turning to `CC1C(=O)C2=C(C(=O)C13OCCO3)[C@H](COC(N)=O)[C@@]1(O)[C@@H]3[C@H](CN21)N3C` (stereo partly shown) [Compound 2, 7-demethoxy-6,7-dihydro-7-ethylenedioxymitomycin B], the MIC in series [1] turned out to be 2.6 µg/mL (≈ 6.85 µM); in series [2] it was 2.5 µg/mL (≈ 6.59 µM); in series [3], 0.63 µg/mL (≈ 1.66 µM); in series [4], 1.3 µg/mL (≈ 3.43 µM). Moreover, the “ILS(%) (Increased Life Span)” value in series [5] (dose 5 mg/kg) turned out to be 173%. Moreover, the “ILS* (ratio of ILS % of test compound to ILS % of mitomycin C)” value in series [5] (dose 5 mg/kg) came to 1.06. The same molecule yielded an LD50 at 336 h in series [6] of 7.5 mg/kg.

As for `CO[C@@]12[C@H](COC(N)=O)C3=C(C(=O)C(C)C4(OCCO4)C3=O)N1C[C@H]1[C@@H]2N1C` (stereo partly shown) [Compound 3, 7-demethoxy-6,7-dihydro-7-ethylenedioxymitomycin F], the MIC in series [1] came out at 0.31 µg/mL (≈ 0.788 µM); in series [2], 0.31 µg/mL (≈ 0.788 µM); in series [3] it was 0.63 µg/mL (≈ 1.6 µM); in series [4] it was 0.31 µg/mL (≈ 0.788 µM). The “ILS(%) (Increased Life Span)” value in series [5] (dose 2.5 mg/kg) is given as 153%. The “ILS* (ratio of ILS % of test compound to ILS % of mitomycin C)” value in series [5] (dose 2.5 mg/kg) worked out at 0.77. In series [6], the LD50 at 336 h came to 4.5 mg/kg.

As to `CO[C@]12[C@@H]3[C@H](CN1C1=C(C(=O)C4(OCCO4)C(C)C1=O)[C@@H]2COC(N)=O)N3C` (stereo partly shown) [Compound 4, 7-demethoxy-6,7-dihydro-7-ethylenedioxymitomycin J], the MIC in series [1] is 0.31 µg/mL (≈ 0.788 µM); in series [2], 0.63 µg/mL (≈ 1.6 µM); in series [3] it was 0.63 µg/mL (≈ 1.6 µM); in series [4], 0.31 µg/mL (≈ 0.788 µM). Also, the “ILS(%) (Increased Life Span)” value in series [5] (dose 5 mg/kg) is listed as 180%. The “ILS* (ratio of ILS % of test compound to ILS % of mitomycin C)” value in series [5] (dose 5 mg/kg) came to 1.16. This molecule had an LD50 at 336 h in series [6] of 6 mg/kg.

Regarding `CO[C@@]12[C@H](COC(N)=O)C3=C(C(=O)C(C)(Cl)C4(OCCO4)C3=O)N1C[C@@H]1N[C@@H]12` (stereo partly shown) [Compound 8, 6-chloro-7-demethoxy-6,7-dihydro-7-ethylenedioxymitomycin A], the MIC came to 1.3 µg/mL (≈ 3.14 µM) in series [1], 0.039 µg/mL (≈ 0.0942 µM) in series [2], 1.3 µg/mL (≈ 3.14 µM) in series [3] and 0.039 µg/mL (≈ 0.0942 µM) in series [4]. Moreover, in series [5] (dose 1.56 mg/kg), the “ILS(%) (Increased Life Span)” value is above 164%. For the same molecule, the “ILS* (ratio of ILS % of test compound to ILS % of mitomycin C)” value in series [5] (dose 1.56 mg/kg) was above 0.93. In series [6], this molecule gave an LD50 at 336 h of 3.75 mg/kg.

For the molecule `CN1[C@H]2[C@@H]1CN1C3=C(C(=O)C4(OCCO4)C(C)(Cl)C3=O)[C@H](COC(N)=O)[C@@]21O` (stereo partly shown) [Compound 9, 6-chloro-7-demethoxy-6,7-dihydro-7-ethylenedioxymitomycin B], the MIC in series [1] is 10 µg/mL (≈ 24.2 µM); in series [2], above 40 µg/mL; in series [3], above 40 µg/mL; in series [4], 5 µg/mL (≈ 12.1 µM). The “ILS(%) (Increased Life Span)” value in series [5] (dose 12.5 mg/kg) was found to be 159%. The “ILS* (ratio of ILS % of test compound to ILS % of mitomycin C)” value in series [5] (dose 12.5 mg/kg) amounted to 1.13. Moreover, the LD50 at 336 h in series [6] amounted to 15 mg/kg.

With `CO[C@@]12[C@H](COC(N)=O)C3=C(C(=O)C(C)(Br)C4(OCCO4)C3=O)N1C[C@H]1[C@@H]2N1C` (stereo partly shown) [Compound 10, 6-bromo-7-demethoxy-6,7-dihydro-7-ethylenedioxymitomycin F], the MIC worked out at 2.5 µg/mL (≈ 5.29 µM) in series [1], 0.63 µg/mL (≈ 1.33 µM) in series [2], 5 µg/mL (≈ 10.6 µM) in series [3] and 5 µg/mL (≈ 10.6 µM) in series [4].
